Test results: patent US12208080B2, “Compositions and methods for modulation of extracellular vesicle release and treatment of neurological disorders” (GEORGE MASON RESEARCH FOUNDATION, INC., priority 2018, dated 2025)

Key:
Assay type in all cases: cell-based
[1] = system: HIV-1 infected monocytes (U1); assay: ZetaView nanoparticle tracking analysis of EVs released from HIV-1 infected U1 monocytes; conditions: 5 days; for EV diameter (mean, median, peak): 1, 5, 10 μM or μg/mL, FIG. 8B-D; for release of EVs (EV concentration) / size of the EV (mean size): 1, 5, 20, 50 μM; for release of EVs (EV concentration): FIG. 2A; for size of the EV (mean size): FIG. 2B
Protocol: HIV-1 infected monocytes (U1) were treated with cannabidiol (“CBD”) (1, 5, 20, and 50 μM) or with tetrahydrocannabinol (“THC”) (1, 5, 20, and 50 μM) for 5 days. The supernatants from the treated cells were analyzed by Zeta View Nanoparticle Tracking analysis for changes in concentration. Student's t-test was used to determine significance (***=p<0.001, **=p<0.01, *=p<0.05).
HIV-1 infected monocytes (U1) were treated with cannabidiol (“CBD”) (1, 5, 20, and 50 μM) or with tetrahydrocannabinol (“THC”) (1, 5, 20, and 50 μM) for 5 days. The supernatants from the treated cells were analyzed by Zeta View Nanoparticle Tracking analysis for changes in mean size. Student's t-test was used to determine significance (***=p<0.001, **=p<0.01, *=p<0.05).
FIGS. 8A-8D are graphs showing Cannabis components lower EVs released from HIV-1 infected monocytes. HIV-1 infected U1 monocytic cells (1×10^6) were treated with a titration of CBD (1, 5, and 10 μM) and THC (1, 5, and 10 μg/mL) every day for 5 days. Cells were pelleted and supernatant was used for Zetaview NTA analysis to determine (A) EV concentration, (B) median size, (C) mean size, and (D) peak size. Each bar represents an average of three independent replicates. Student's t-test was used for statistical analysis, where *p-value≤0.05; **p-value≤0.01, ***p-value≤0.001.
HIV-1 infected monocytes (U1) were treated with a titration of CBD (1, 5, 20, and 50 μM) or a titration of THC (1, 5, 20, and 50 μM) for 5 days. Resulting supernatants from the treated cells were analyzed by Zeta View Nanoparticle Tracking analysis for changes in concentration (FIG. 2A) or mean size (FIG. 2B).
NTA was performed with the ZetaView Z-NTA (Particle Metrix) and its software (ZetaView 8.04.02). The machine was calibrated according to manufacturer's protocol. Following the measurement and removal of any outliers from the measured 11 positions, the mean size (diameter; nm) and the concentration of the sample (EV number) were analyzed by the associated ZetaView software. Measurement data from the ZetaView were used to calculate averages and standard deviations from technical triplicates using Microsoft Excel 2016.
(§1) Supernatants were harvested and analyzed using ZetaView NTA.
To verify that the observed decrease in EVs was not the result of modifications in packaging of various cargos into larger EVs, the mean diameter size (FIG. 8B), median diameter size (FIG. 8C), and peak diameter size (FIG. 8D) were also analyzed.

[2] = system: HIV-1 infected monocytes (U1); assay: RT-qPCR of EV-associated HIV-1 TAR and env RNA from U1 cells; conditions: 5 days; for reduction in TAR RNA within EVs: average from two replicates; for incorporation of TAR RNA into EVs / incorporation of env RNA into EVs: 1, 5, 20, 50 μM; for incorporation of TAR RNA into EVs: FIG. 3A; for incorporation of env RNA into EVs: FIG. 3B; for env RNA within EVs: FIG. 9C
[3] = system: HIV-1 infected monocytes (U1); assay: Western blot/densitometry of EV-associated proteins (NT80/82-enriched supernatant) from U1 cells; conditions: for CD81 (EV marker) in EVs / EV-associated Nef / EV-associated gp120: 1, 5, 20, 50 μM, FIG. 2C; for EV CD81 level / EV-associated Nef (30 kDa) / EV-associated myristoylated Nef dimer (70 kDa): CBD 1, 5, 10 μM, THC 1, 5, 10 μg/mL, FIG. 9A; for increase in EV-associated gp160 (densitometry): maximum, CBD lane 4 (10 μM), THC lane 7 (10 μg/mL)
[4] = system: HIV-1 infected U1 monocytic cells; assay: MTT cell viability assay; conditions: CBD 1, 5, 10 μM, THC 1, 5, 10 μg/ml, 5 days, FIG. 7
Protocol: FIG. 7 is a graph showing cell viability analysis of cannabidiol components on HIV-1 infected monocytes. HIV-1 infected U1 monocytic cells (1×10^6) were treated with CBD (green bars) at 1, 5, 10 and 50 μM) or THC (blue bars) at 1, 5, 10 and 50 μg/mL) every day for 5 days. Cell viability was determined using the MTT assay. Student's t-test was used for statistical analysis, where n.s is not significant, *p-value≤0.05; **p-value≤0.01, ***p-value≤0.001.
Cells were cultured in RPMI with 10% exosome-free FBS at 10^6 cells per well in 6 well plates. Cells were treated with 0.005% ethanol (control), CBD (1, 5 10, 50 μm) and THC (1, 5, 10, 50 μg/mL) once per day for 5 days. The MTT assay was used to measure cell death according to manufacturer's protocol (Sigma). After incubating with MTT solution for 2 h, the culture medium was aspirated and 1 mL of MTT solvent was added to each well. Cell viability was determined by the formation of formazan crystal and measured by absorbance at 590 nm and 620 nm, as previously described (Cotto et al., 2018, Cocaine and HIV-1 Tat Disrupt Cholesterol Homeostasis in Astrocytes: Implications for HIV-Associated Neurocognitive Disorders in Cocaine User Patients. Glia, 66(4), 889-902).
as §1

[5] = CBD 1, 5, 10 μM, THC 1, 5, 10 μg/mL

Compound	EV diameter (mean, median, peak) [1]	release of EVs (EV concentration) [1]	size of the EV (mean size) [1]	incorporation of TAR RNA into EVs [2]	incorporation of env RNA into EVs [2]	env RNA within EVs [2, 5]	CD81 (EV marker) in EVs ([3]; U1, 5 days)	EV-associated Nef ([3]; U1, 5 days)	EV-associated gp120 ([3]; U1, 5 days)	EV CD81 level ([3]; U1, 5 days)	EV-associated Nef (30 kDa) ([3]; U1, 5 days)	EV-associated myristoylated Nef dimer (70 kDa) ([3]; U1, 5 days)	increase in EV-associated gp160 (densitometry) [3]	cell viability [4]	also measured
C=C(C)[C@@H]1CCC(C)=C[C@H]1c1c(O)cc(CCCCC)cc1O [CBD, 2-[1R-3-methyl-6R-(1-methylethenyl)-2-cyclohexen-1-yl]-5-pentyl-1,3-benzenediol]	little to no change in diameter	significantly reduced the release of EVs	without altering the size of the EV	statistically significant, dose-dependent decrease	statistically significant, dose-dependent decrease	reduction	reduction in CD81	dose-dependent decrease	dose-dependent decrease	decreased	dose-dependent decrease	dose-dependent decrease	up to 125%	no effects on cell viability	decrease in EVs compared to untreated control ([1]; 1 μM, FIG. 8A lane 2): 44%; decrease in EVs compared to untreated control ([1]; 5 μM, FIG. 8A lane 3): 76%; decrease in EVs compared to untreated control ([1]; 10 μM, FIG. 8A lane 4): 79%; reduction in TAR RNA within EVs ([2]; 5 μM, FIG. 9B): 55%; reduction in TAR RNA within EVs ([2]; 10 μM, FIG. 9B): 86%; dose-dependent decrease in EV-associated TAR RNA ([2]; CBD 1, 5, 10 μM, THC 1, 5, 10 μg/mL, FIG. 9B): dose-dependent decrease; reduction in EV-associated gp120 (densitometry) ([3]; U1, CBD 1, 5, 10 μM (lanes 2-4), 5 days): 39-58%; reduction in EV CD81 expression (densitometry) ([3]; U1, low titer CBD (lane 2, 1 μM), 5 days, FIG. 10A): 80%; decrease in EV-associated Nef (30 kDa), densitometry ([3]; greatest reduction, lane 3 (CBD 5 μM), FIG. 10): up to 79%
CCCCCc1cc(O)c2c(c1)OC(C)(C)[C@@H]1CCC(C)=C[C@@H]21 [THC, Δ9-tetrahydrocannabinol]	little to no change in diameter	significantly reduced the release of EVs	without altering the size of the EV	statistically significant, dose-dependent decrease	statistically significant, dose-dependent decrease	reduction	reduction in CD81	dose-dependent decrease	dose-dependent decrease	decrease in CD81	dose-dependent decrease	dose-dependent decrease	≤ 57%	no effects on cell viability	number of EVs released ([1]; 1, 5, 10 μg/mL, FIG. 8A lanes 5-7, less drastic than CBD): significant reduction in the number of EVs; decrease in EV-associated myristoylated Nef dimer (70 kDa), densitometry ([3]; greatest reduction, lane 7 (THC 10 μg/mL), FIG. 10): up to 37%
